In US10550111B2, “Pyrimidine urea compound containing isoxazolines and use thereof” (SHENYANG SINOCHEM AGROCHEMICALS R&D CO., LTD, priority 2014, dated 2020):

How the values were obtained:
Format in all cases: in vivo
[1] = test system: Abutilon theophrasti Medic.; test: Bioassay of herbicidal activity in greenhouse (further screening)
Outline: (§1)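 Visual growth inhibition rating (0–100%; 100 = weeds dead or not emerged) after track-sprayer application of compounds formulated as emulsifiable concentrates. Sprays given 24 h post-sowing (pre-emergence) or at 2–3-leaf (grasses) / 2–4-leaf (broad-leaves) stage, greenhouse-grown plants.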

[2] = test system: Setaria glauca (L.) Beauv.; test: as above
Outline: as §1

[3] = test system: Zinnia elegans Jacq.; test: as above
Outline: as §1

[4] = test system: Echinochloa crus-galli (L.) Beauv.; test: as above
Outline: as §1

[5] = test system: broad-leaf weeds and grass weeds; test: General screening of herbicidal activity in greenhouse; settings: 1000 g a.i./hm^2;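 also: 0 means no visible effect and 100 means all weeds dead or not emerged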
Outline: as §1

## CSCCC(=O)OCC1(C)CC(c2cc(-n3c(=O)cc(C(F)(F)F)n(C)c3=O)c(F)cc2Cl)=NO1 (centres unmarked) [Compound 54]
[1]; dose 37.5 g a.i./hm^2
  Growth inhibition rate, Post-emergence treatment, Abutilon theophrasti Medic.: 100%
  Growth inhibition rate, Pre-emergence treatment, Abutilon theophrasti Medic.: 0%
[1]; dose 150 g a.i./hm^2
  Growth inhibition rate, Post-emergence treatment, Abutilon theophrasti Medic.: 100%
  Growth inhibition rate, Pre-emergence treatment, Abutilon theophrasti Medic.: 35%
[1]; dose 600 g a.i./hm^2
  Growth inhibition rate, Post-emergence treatment, Abutilon theophrasti Medic.: 100%
  Growth inhibition rate, Pre-emergence treatment, Abutilon theophrasti Medic.: 90%
[2]; dose 37.5 g a.i./hm^2
  Growth inhibition rate, Post-emergence treatment, Setaria glauca (L.) Beauv.: 35%
  Growth inhibition rate, Pre-emergence treatment, Setaria glauca (L.) Beauv.: 0%
[2]; dose 150 g a.i./hm^2
  Growth inhibition rate, Post-emergence treatment, Setaria glauca (L.) Beauv.: 70%
  Growth inhibition rate, Pre-emergence treatment, Setaria glauca (L.) Beauv.: 20%
[2]; dose 600 g a.i./hm^2
  Growth inhibition rate, Post-emergence treatment, Setaria glauca (L.) Beauv.: 98%
  Growth inhibition rate, Pre-emergence treatment, Setaria glauca (L.) Beauv.: 60%
[3]; dose 37.5 g a.i./hm^2
  Growth inhibition rate, Post-emergence treatment, Zinnia elegans Jacq.: 90%
  Growth inhibition rate, Pre-emergence treatment, Zinnia elegans Jacq.: 0%
[3]; dose 150 g a.i./hm^2
  Growth inhibition rate, Post-emergence treatment, Zinnia elegans Jacq.: 100%
  Growth inhibition rate, Pre-emergence treatment, Zinnia elegans Jacq.: 20%
[3]; dose 600 g a.i./hm^2
  Growth inhibition rate, Post-emergence treatment, Zinnia elegans Jacq.: 100%
  Growth inhibition rate, Pre-emergence treatment, Zinnia elegans Jacq.: 60%
[4]; dose 37.5 g a.i./hm^2
  Growth inhibition rate, Post-emergence treatment, Echinochloa crus-galli (L.) Beauv.: 10%
  Growth inhibition rate, Pre-emergence treatment, Echinochloa crus-galli (L.) Beauv.: 0%
[4]; dose 150 g a.i./hm^2
  Growth inhibition rate, Post-emergence treatment, Echinochloa crus-galli (L.) Beauv.: 20%
  Growth inhibition rate, Pre-emergence treatment, Echinochloa crus-galli (L.) Beauv.: 15%
[4]; dose 600 g a.i./hm^2
  Growth inhibition rate, Post-emergence treatment, Echinochloa crus-galli (L.) Beauv.: 75%
  Growth inhibition rate, Pre-emergence treatment, Echinochloa crus-galli (L.) Beauv.: 80%
[5]
  pre-emergence and post-emergence herbicidal activity against broad-leaf weeds and grass weeds: good

## Cn1c(C(F)(F)F)cc(=O)n(-c2cc(C3=NOC(C)(COC(=O)CCc4ccccc4)C3)c(Cl)cc2F)c1=O (centres unmarked) [Compound 55]
[1]; dose 37.5 g a.i./hm^2
  Growth inhibition rate, Post-emergence treatment, Abutilon theophrasti Medic.: 100%
  Growth inhibition rate, Pre-emergence treatment, Abutilon theophrasti Medic.: 5%
[1]; dose 150 g a.i./hm^2
  Growth inhibition rate, Post-emergence treatment, Abutilon theophrasti Medic.: 100%
  Growth inhibition rate, Pre-emergence treatment, Abutilon theophrasti Medic.: 20%
[1]; dose 600 g a.i./hm^2
  Growth inhibition rate, Post-emergence treatment, Abutilon theophrasti Medic.: 100%
  Growth inhibition rate, Pre-emergence treatment, Abutilon theophrasti Medic.: 45%
[2]; dose 37.5 g a.i./hm^2
  Growth inhibition rate, Post-emergence treatment, Setaria glauca (L.) Beauv.: 30%
  Growth inhibition rate, Pre-emergence treatment, Setaria glauca (L.) Beauv.: 0%
[2]; dose 150 g a.i./hm^2
  Growth inhibition rate, Post-emergence treatment, Setaria glauca (L.) Beauv.: 75%
  Growth inhibition rate, Pre-emergence treatment, Setaria glauca (L.) Beauv.: 5%
[2]; dose 600 g a.i./hm^2
  Growth inhibition rate, Post-emergence treatment, Setaria glauca (L.) Beauv.: 90%
  Growth inhibition rate, Pre-emergence treatment, Setaria glauca (L.) Beauv.: 80%
[3]; dose 37.5 g a.i./hm^2
  Growth inhibition rate, Post-emergence treatment, Zinnia elegans Jacq.: 100%
  Growth inhibition rate, Pre-emergence treatment, Zinnia elegans Jacq.: 0%
[3]; dose 150 g a.i./hm^2
  Growth inhibition rate, Post-emergence treatment, Zinnia elegans Jacq.: 100%
  Growth inhibition rate, Pre-emergence treatment, Zinnia elegans Jacq.: 5%
[3]; dose 600 g a.i./hm^2
  Growth inhibition rate, Post-emergence treatment, Zinnia elegans Jacq.: 100%
  Growth inhibition rate, Pre-emergence treatment, Zinnia elegans Jacq.: 80%
[4]; dose 37.5 g a.i./hm^2
  Growth inhibition rate, Post-emergence treatment, Echinochloa crus-galli (L.) Beauv.: 20%
  Growth inhibition rate, Pre-emergence treatment, Echinochloa crus-galli (L.) Beauv.: 0%
[4]; dose 150 g a.i./hm^2
  Growth inhibition rate, Post-emergence treatment, Echinochloa crus-galli (L.) Beauv.: 35%
  Growth inhibition rate, Pre-emergence treatment, Echinochloa crus-galli (L.) Beauv.: 20%
[4]; dose 600 g a.i./hm^2
  Growth inhibition rate, Post-emergence treatment, Echinochloa crus-galli (L.) Beauv.: 45%
  Growth inhibition rate, Pre-emergence treatment, Echinochloa crus-galli (L.) Beauv.: 40%
[5]
  pre-emergence and post-emergence herbicidal activity against broad-leaf weeds and grass weeds: good

## Cn1c(C(F)(F)F)cc(=O)n(-c2cc(C3=NOC(C)(COS(C)(=O)=O)C3)c(Cl)cc2F)c1=O (centres unmarked) [Compound 88]
[1]; dose 7.5 g a.i./hm^2
  Growth inhibition rate, Post-emergence treatment, Abutilon theophrasti Medic.: 98%
  Growth inhibition rate, Pre-emergence treatment, Abutilon theophrasti Medic.: 98%
[1]; dose 15 g a.i./hm^2
  Growth inhibition rate, Post-emergence treatment, Abutilon theophrasti Medic.: 100%
  Growth inhibition rate, Pre-emergence treatment, Abutilon theophrasti Medic.: 100%
[1]; dose 37.5 g a.i./hm^2
  Growth inhibition rate, Post-emergence treatment, Abutilon theophrasti Medic.: 98%
  Growth inhibition rate, Pre-emergence treatment, Abutilon theophrasti Medic.: 85%
[1]; dose 150 g a.i./hm^2
  Growth inhibition rate, Post-emergence treatment, Abutilon theophrasti Medic.: 100%
  Growth inhibition rate, Pre-emergence treatment, Abutilon theophrasti Medic.: 100%
[1]; dose 600 g a.i./hm^2
  Growth inhibition rate, Post-emergence treatment, Abutilon theophrasti Medic.: 100%
  Growth inhibition rate, Pre-emergence treatment, Abutilon theophrasti Medic.: 100%
[2]; dose 7.5 g a.i./hm^2
  Growth inhibition rate, Post-emergence treatment, Setaria glauca (L.) Beauv.: 25%
  Growth inhibition rate, Pre-emergence treatment, Setaria glauca (L.) Beauv.: 65%
[2]; dose 15 g a.i./hm^2
  Growth inhibition rate, Post-emergence treatment, Setaria glauca (L.) Beauv.: 30%
  Growth inhibition rate, Pre-emergence treatment, Setaria glauca (L.) Beauv.: 80%
[2]; dose 37.5 g a.i./hm^2
  Growth inhibition rate, Post-emergence treatment, Setaria glauca (L.) Beauv.: 45%
  Growth inhibition rate, Pre-emergence treatment, Setaria glauca (L.) Beauv.: 30%
[2]; dose 150 g a.i./hm^2
  Growth inhibition rate, Post-emergence treatment, Setaria glauca (L.) Beauv.: 70%
  Growth inhibition rate, Pre-emergence treatment, Setaria glauca (L.) Beauv.: 85%
[2]; dose 600 g a.i./hm^2
  Growth inhibition rate, Post-emergence treatment, Setaria glauca (L.) Beauv.: 98%
  Growth inhibition rate, Pre-emergence treatment, Setaria glauca (L.) Beauv.: 100%
[3]; dose 7.5 g a.i./hm^2
  Growth inhibition rate, Post-emergence treatment, Zinnia elegans Jacq.: 98%
  Growth inhibition rate, Pre-emergence treatment, Zinnia elegans Jacq.: 20%
[3]; dose 15 g a.i./hm^2
  Growth inhibition rate, Post-emergence treatment, Zinnia elegans Jacq.: 100%
  Growth inhibition rate, Pre-emergence treatment, Zinnia elegans Jacq.: 30%
[3]; dose 37.5 g a.i./hm^2
  Growth inhibition rate, Post-emergence treatment, Zinnia elegans Jacq.: 100%
  Growth inhibition rate, Pre-emergence treatment, Zinnia elegans Jacq.: 45%
[3]; dose 150 g a.i./hm^2
  Growth inhibition rate, Post-emergence treatment, Zinnia elegans Jacq.: 100%
  Growth inhibition rate, Pre-emergence treatment, Zinnia elegans Jacq.: 100%
[3]; dose 600 g a.i./hm^2
  Growth inhibition rate, Post-emergence treatment, Zinnia elegans Jacq.: 100%
  Growth inhibition rate, Pre-emergence treatment, Zinnia elegans Jacq.: 100%
[4]; dose 7.5 g a.i./hm^2
  Growth inhibition rate, Post-emergence treatment, Echinochloa crus-galli (L.) Beauv.: 15%
  Growth inhibition rate, Pre-emergence treatment, Echinochloa crus-galli (L.) Beauv.: 5%
[4]; dose 15 g a.i./hm^2
  Growth inhibition rate, Post-emergence treatment, Echinochloa crus-galli (L.) Beauv.: 20%
  Growth inhibition rate, Pre-emergence treatment, Echinochloa crus-galli (L.) Beauv.: 10%
[4]; dose 37.5 g a.i./hm^2
  Growth inhibition rate, Post-emergence treatment, Echinochloa crus-galli (L.) Beauv.: 25%
  Growth inhibition rate, Pre-emergence treatment, Echinochloa crus-galli (L.) Beauv.: 15%
[4]; dose 150 g a.i./hm^2
  Growth inhibition rate, Post-emergence treatment, Echinochloa crus-galli (L.) Beauv.: 60%
  Growth inhibition rate, Pre-emergence treatment, Echinochloa crus-galli (L.) Beauv.: 80%
[4]; dose 600 g a.i./hm^2
  Growth inhibition rate, Post-emergence treatment, Echinochloa crus-galli (L.) Beauv.: 95%
  Growth inhibition rate, Pre-emergence treatment, Echinochloa crus-galli (L.) Beauv.: 100%
[5]
  pre-emergence and post-emergence herbicidal activity against broad-leaf weeds and grass weeds: good

## CCCS(=O)(=O)OCC1(C)CC(c2cc(-n3c(=O)cc(C(F)(F)F)n(C)c3=O)c(F)cc2Cl)=NO1 (centres unmarked) [Compound 90]
[1]; dose 37.5 g a.i./hm^2
  Growth inhibition rate, Post-emergence treatment, Abutilon theophrasti Medic.: 100%
  Growth inhibition rate, Pre-emergence treatment, Abutilon theophrasti Medic.: 0%
[1]; dose 150 g a.i./hm^2
  Growth inhibition rate, Post-emergence treatment, Abutilon theophrasti Medic.: 100%
  Growth inhibition rate, Pre-emergence treatment, Abutilon theophrasti Medic.: 10%
[1]; dose 600 g a.i./hm^2
  Growth inhibition rate, Post-emergence treatment, Abutilon theophrasti Medic.: 100%
  Growth inhibition rate, Pre-emergence treatment, Abutilon theophrasti Medic.: 30%
[2]; dose 37.5 g a.i./hm^2
  Growth inhibition rate, Post-emergence treatment, Setaria glauca (L.) Beauv.: 25%
  Growth inhibition rate, Pre-emergence treatment, Setaria glauca (L.) Beauv.: 5%
[2]; dose 150 g a.i./hm^2
  Growth inhibition rate, Post-emergence treatment, Setaria glauca (L.) Beauv.: 60%
  Growth inhibition rate, Pre-emergence treatment, Setaria glauca (L.) Beauv.: 20%
[2]; dose 600 g a.i./hm^2
  Growth inhibition rate, Post-emergence treatment, Setaria glauca (L.) Beauv.: 80%
  Growth inhibition rate, Pre-emergence treatment, Setaria glauca (L.) Beauv.: 50%
[3]; dose 37.5 g a.i./hm^2
  Growth inhibition rate, Post-emergence treatment, Zinnia elegans Jacq.: 98%
  Growth inhibition rate, Pre-emergence treatment, Zinnia elegans Jacq.: 5%
[3]; dose 150 g a.i./hm^2
  Growth inhibition rate, Post-emergence treatment, Zinnia elegans Jacq.: 100%
  Growth inhibition rate, Pre-emergence treatment, Zinnia elegans Jacq.: 30%
[3]; dose 600 g a.i./hm^2
  Growth inhibition rate, Post-emergence treatment, Zinnia elegans Jacq.: 100%
  Growth inhibition rate, Pre-emergence treatment, Zinnia elegans Jacq.: 80%
[4]; dose 37.5 g a.i./hm^2
  Growth inhibition rate, Post-emergence treatment, Echinochloa crus-galli (L.) Beauv.: 15%
  Growth inhibition rate, Pre-emergence treatment, Echinochloa crus-galli (L.) Beauv.: 0%
[4]; dose 150 g a.i./hm^2
  Growth inhibition rate, Post-emergence treatment, Echinochloa crus-galli (L.) Beauv.: 35%
  Growth inhibition rate, Pre-emergence treatment, Echinochloa crus-galli (L.) Beauv.: 10%
[4]; dose 600 g a.i./hm^2
  Growth inhibition rate, Post-emergence treatment, Echinochloa crus-galli (L.) Beauv.: 40%
  Growth inhibition rate, Pre-emergence treatment, Echinochloa crus-galli (L.) Beauv.: 25%
[5]
  pre-emergence and post-emergence herbicidal activity against broad-leaf weeds and grass weeds: good
